What was measured:
[1] = Hepatocyte intrinsic clearance and metabolite profile; assay type: in vitro ADME, dog; details: male, beagle, dog, cryopreserved hepatocytes, 1 µM
Experimental: Fexinidazole was incubated with cryopreserved hepatocytes from male CD-1 mice, male Sprague Dawley rats, male beagle dogs, male cynomolgus monkeys, and from pooled white or African-American human donor samples (purchased commercially), at concentrations of 1 µM and 10 µM. […] The incubated samples were analyzed by LC-MS after extraction into acetonitrile.
A quality control analysis of fexinidazole was performed via 1H-NMR in DMSO and LC- […]
provided by the Swiss Tropical Institute (Basel, Switzerland).
Reagents and solvents were of analytical grade and obtained from Sigma-Aldrich (St. Louis, […]
Cryopreserved hepatocytes from the male CD1 mouse, lot CSI; male Sprague Dawley rat, lot LPL; male beagle dog, lot BWX; male cynomolgus monkey, lot EHH; and pooled human samples, lot MJI, were purchased from In Vitro Technologies Inc (Baltimore, Maryland, […]
5.4. In vitro Incubations
On the day of the experiment a 10 mM stock solution of fexinidazole in DMSO was prepared and, within 3 hours, aliquots of this freshly prepared solution, after suitable dilution, were added to the incubation matrix, to reach fexinidazole final concentrations of 1 and 10 µM. The final percentage of DMSO was 0.01% in the incubation samples for the […]
On the day of experiment, the cryopreserved hepatocytes were thawed following the detailed instructions provided by the supplier.
The number of viable cells was determined using a Trypan Blue exclusion method.
5.4.1. Intrinsic Clearance Study […]
µM with mouse, rat, dog, monkey and human hepatocytes (300000 cells/mL for the mouse and 1 million cells/mL for the other species) in a final incubation volume of 0.75 mL […]
Incubations were performed in duplicate in a 48-well plate under shaking. Sampling was performed using an automatic liquid handling system (Multiprobe II EX, Packard). At 0, 1, 5, 10, 15, 20, 30, 60 and 120 minutes, 50 µL aliquots of the incubates were taken, then 80 µL of ice-cold acetonitrile and 20 µL of 1 µM warfarin in acetonitrile (internal standard) were added, and samples centrifuged at 2000 rpm for 20 min. The supernatant was analyzed by LC-MS/MS. […]
the medium alone at t = 0 and 120 minutes.
For the determination of phase I and phase II activity of hepatocytes, 7-ethoxycoumarin (7-EC) 1 µM, and 7-hydroxycoumarin (7-HC) 30 µM were used as positive controls and incubated under the same conditions as fexinidazole. Aliquots of incubates were taken at 0, 10, 20, 30, 60 and 120 minutes and processed as fexinidazole samples.
5.4.2. Metabolite Profile Study
For metabolite profiling, fexinidazole was incubated at a concentration of 10 µM with mouse, rat, dog, monkey and human hepatocytes (300000 cells/mL for the mouse and 1 million cells/mL for the other species) in a final incubation volume of 2 mL Leibovitz L-15 […]
Aliquots of the incubation samples were taken at t = 0, 30 and 120 minutes; the metabolism was stopped by the addition of an equal volume of cold acetonitrile and the samples centrifuged at 1500 rpm for 20 min. The supernatant was stored at -20°C until analysis. Control incubations were performed with the compound in the medium alone […]
5.5. Analysis of Samples for Intrinsic Clearance Determination
The analysis of the samples for intrinsic clearance determination was performed by an LC-MS/MS method, using the following conditions:
HPLC Equipment and Conditions
HPLC system Agilent 1100 binary pump (Agilent, Palo Alto, USA)
Autosampler CTC Pal (Alfatech, San Jose, USA)
Analytical column Guard Column SB-C8 4.6 x 12.5 mm, 5 µm (Zorbax)
Column temperature ambient
Mobile phase A 10 mM ammonium formate pH 4.0: acetonitrile (95:5, v:v)
Mobile phase B 10 mM ammonium formate pH 4.0: acetonitrile (5:95, v:v) […]
Gradient conditions Step Total time (min) flow (µL/min) %A % B […]
MS Equipment and Conditions
Mass spectrometer API 4000 Triple Quadrupole (MDS-Sciex, Toronto, […]
Source Turbo Ion Spray (TIS)
Ion mode Positive for fexinidazole and 7-EC.
Negative for 7-HC, 7-HC sulphate and 7-HC glucuronide.

[2] = test system: bone marrow polychromatic erythrocytes; experiment: In vivo bone marrow micronucleus test; parameters: species or system mouse
Experimental: Groups of six young adult male Crl:CD-1 (ICR) mice were treated with fexinidazole at two oral doses of 0, 500, 1000, or 2000 mg/kg given 24 h apart, and bone marrows were harvested 24 h after the second dose. Slides of bone marrow cells were prepared, Giemsa stained, and 2000 polychromatic erythrocytes per animal were scored for micronuclei.

[3] = Chemical stability in incubation medium alone; assay type: physicochemical; details: fexinidazole 10 µM, Leibovitz medium alone, 120 min
Experimental: Incubations were performed in duplicate in a 48-well plate under shaking. Sampling was performed using an automatic liquid handling system (Multiprobe II EX, Packard). […] in acetonitrile (internal standard) were added, and samples centrifuged at 2000 rpm for 20 min. The supernatant was analyzed by LC-MS/MS. The chemical stability of fexinidazole was checked by incubating the compound at 37°C in the medium alone at t = 0 and 120 minutes. For the determination of phase I and phase II activity of hepatocytes, 7-ethoxycoumarin (7- […] incubated under the same conditions as fexinidazole. Aliquots of incubates were taken at 0, 10, 20, 30, 60 and 120 minutes and processed as fexinidazole samples. […] Metabolite Profile Study […] mouse, rat, dog, monkey and human hepatocytes (300000 cells/mL for the mouse and 1 million cells/mL for the other species) in a final incubation volume of 2 mL Leibovitz L-15 medium, at 37°C. Aliquots of the incubation samples were taken at t = 0, 30 and 120 minutes; the metabolism was stopped by the addition of an equal volume of cold acetonitrile and the samples centrifuged at 1500 rpm for 20 min. The supernatant was stored at -20°C until analysis. Control incubations were performed with the compound in the medium alone for 120 minutes. […] Nerviano Medical Sciences […] For the determination of phase I and phase II activities of hepatocytes, 7-ethoxycoumarin (7- […] incubated under the same conditions as fexinidazole. Aliquots of incubates were taken at 0, […] 7.5.2. Metabolite Profile Study […] pooled human hepatocytes (1 million cells/mL) in a final incubation volume of 2 mL Leibovitz L-15 medium, at 37°C. Aliquots of the incubation samples were taken at t = 0, 30 and 120 minutes; the metabolism was stopped by the addition of an equal volume of cold acetonitrile and the samples centrifuged at 1100 rpm for 20 min. The supernatant was stored at -20°C until analysis. Control incubations were performed with the compound in the medium alone for 120 minutes. […] Valco Divert Valve Step Total time (min) Position […]

Row | SMILES | half-life at 1 µM [1] | CLint scaled at 1 µM ([1]; read-out: CLint in vitro) | hepatocyte CLint at 1 µM ([1]; read-out: CLint in vitro) | Micronucleated PCE/1000 ([2]; 500 mg/kg po ×2) | PCE/NCE ([2]; 500 mg/kg po ×2) | Micronucleated PCE/1000 ([2]; 1000 mg/kg po ×2) | PCE/NCE ([2]; 1000 mg/kg po ×2) | Micronucleated PCE/1000 ([2]; 2000 mg/kg po ×2) | PCE/NCE ([2]; 2000 mg/kg po ×2) | in vivo micronucleus test result ([2]; oral doses up to 2 g/kg) | % of total drug related material [3] | % of total drug related material ([3]; listed as P)
1 | CSc1ccc(OCc2ncc([N+](=O)[O-])n2C)cc1 [Fexinidazole, 1-methyl-2-((p-(methylthio)phenoxy)methyl)-5-nitroimidazole] | 1.1 min | > 3000 mL/min/kg | 656 µL/min/1e6 cells | 1.4 | 0.82 | 1.1 | 0.75 | 1.8 | 0.89 | confirmed the lack of clastogenicity | about 84% | 82%
2 | Cn1c([N+](=O)[O-])cnc1COc1ccc([S+](C)[O-])cc1 (stereo not shown) [Fexinidazole sulfoxide] |  |  |  |  |  |  |  |  |  |  | 18% | 
